Test results published in patent US7229985B2, “Amorphous substance of tricyclic triazolobenzazepine derivative” (Meiji Seika Kaisha, Ltd., priority 2001, dated 2007).
Values after ≈ are worked out from the molar mass of the structure shown.

How the values were obtained:
[1] = Dissoluvability Test (1): solubility in water or 1 wt % aqueous methylcellulose solution at 37° C.; type: physicochemical
Procedure: Water or a 1 wt % aqueous methylcellulose solution was provided as a test liquid, and solubility of various samples in the test liquid was examined. Each sample in an amount of about 100 mg in terms of compound A was added to 500 mL of the test liquid kept at 37° C., and the mixture was stirred with a paddle at 200 rpm. Sampling was carried out at predetermined time intervals, and the samples were filtered through a membrane filter (Sumplep LCR 13-LG, manufactured by Millipore Corporation). The concentration of compound A in each of the filtrates was analyzed by HPLC.
In Test Example 2, HPLC was carried out under the following measuring conditions.
Detector: Ultraviolet absorptiometer (measuring wavelength: 240 nm)
Column: Inertsil ODS 2 4.6×250 mm in which a stainless tube having an inner diameter of 4.6 mm and a length of 25 cm was packed with a 5-μm octadecylsilyl silica gel for liquid chromatography.
Column temp.: Around 40° C.
Mobile phase: 0.1 wt % ammonium acetate:methanol (45:55)

[2] = Absorption Test: oral administration, plasma compound B concentration; type: in vivo, beagles
Procedure: The sample produced in Comparative Example 1 or Example 1 was suspended in a 1 wt % aqueous methylcellulose solution. The suspension was administered orally to beagles (n=6) which had been subjected to fasting overnight. The difference in absorption among the samples was evaluated by comparing the area under the plasma drug concentration-time curve (AUC).
The plasma drug concentration in the collected blood was quantitatively determined according roughly to the following method.
Blood (about 0.7 mL) collected from the cephalic vein was centrifuged (4° C., about 9000×g, 10 min) in the presence of heparin to obtain plasma. Methanol (400 μL) and an internal standard substance solution (sodium salt of 7-methyl-4(5H),10-dioxo-2H-1,2,3-triazolo[4,5-c][1]benzazepine, 100 ng/mL, 100 μL) were added to the plasma (100 μL), and the mixture was stirred and centrifuged (4° C., about 9000×g, 10 min).
The supernatant was evaporated to dryness at room temperature under a nitrogen gas stream, and 150 μL of a mixed solution composed of a 10 mmol/L phosphate buffer (pH 7.0) and a methanol (8:2) was added to the residue for redissolution. The solution was then filtered by a centrifugal filter (Centricut Ultra-Mmini (KURABO INDUSTRIES LTD.), 4° C., about 9000×g, 10 min), and the filtrate was analyzed as a sample by HPLC. […]
Fluorescence detection wavelength: Ex 270 nm, Em 466 nm (GAIN=100, response=standard) […]

[3] = Solubility in methylene chloride; type: physicochemical
[4] = Oral absorption of pulverized crystal; type: in vivo; settings: orally administered to dogs
Procedure: In addition, an experiment in which a pulverized crystal of crystalline compound A is prepared according to the description of Japanese Patent Laid-Open No. 185013/1987 disclosing a drug, which has been rendered easily absorbable by pulverizing was carried out. The treated drug is orally administered to experimental animals such as dogs.

[5] = Solubility in glycerin, propylene glycol, Macrogol 400 and the like; type: physicochemical
[6] = test liquid 1 wt % aqueous methylcellulose solution, 37° C. (FIG. 3)
[7] = test liquid water, 37° C., about 100 mg in 500 mL, paddle 200 rpm (FIG. 2), level reached

solubility ([1]; 1 wt % aqueous methylcellulose solution, aqueous with cosolvent or surfactant or cyclodextrin, thermodynamic from solid, in a 1 wt % methylcellulose solution at 37° C.) [µg/mL]	time for which concentration of dissolution was maintained ([1]; test liquid 1 wt % aqueous methylcellulose solution, 37° C.) [h]	concentration of dissolution [1, 6]	concentration of dissolution [1, 7]	concentration of dissolution after lowering ([1]; test liquid water, 37° C., value to which the concentration then lowered (FIG. 2))	plasma compound B concentration over time versus crystalline compound of Comparative Example 1 ([2]; beagles, dose one-eighth of the dose of the crystalline compound)	plasma compound B concentration versus crystalline compound of Comparative Example 1 ([2]; suspension in 1 wt % aqueous methylcellulose, fasted beagles (FIG. 5))	solubility in methylene chloride [3]	improvement in absorption [4]	SMILES	solubility in glycerin, propylene glycol, Macrogol 400 and the like [5]
15 to 20 (≈ 34.7 to 46.2 µM)	4	not less than 18 μg/mL	about 5 μg/mL	about 3 μg/mL	much higher	significantly higher			COc1cc2[nH]c(=O)c3nn(C(OC(=O)OC(C)C)C(C)C)nc3c(=O)c2cc1OC (stereo not drawn) [Example 1, 2-(1-isopropoxycarbonyloxy-2-methylpropyl)-7,8-dimethoxy-4(5H), 10-dioxo-2H-1,2,3-triazolo[4,5-c][1]benzazepine]	
		not more than 1 μg/mL	not more than 1 μg/mL				about 1 % by weight	not more than expected	COc1cc2[nH]c(=O)c3nn(C(OC(=O)OC(C)C)C(C)C)nc3c(=O)c2cc1OC (stereo not drawn) [Comparative Example 1, 2-(1-Isopropoxycarbonyloxy-2-methylpropyl)-7,8-dimethoxy-4(5H), 10-dioxo-2H-1,2,3-triazolo[4,5-c][1]benzazepine]	not on such a level that can make crystalline compound A pharmaceutically usable
